Results on 12 molecules are retold here after patent publication US12404241B2 (Celgene Corporation, priority 2018, dated 2025).

Where only a bound is given, the exact number is not on record here.

This test deals with T1, AR (Homo sapiens, UniProt P10275).
T1 construct: endogenous in cells; host or cells: VCaP cells
T1 sequence (P10275 1-920): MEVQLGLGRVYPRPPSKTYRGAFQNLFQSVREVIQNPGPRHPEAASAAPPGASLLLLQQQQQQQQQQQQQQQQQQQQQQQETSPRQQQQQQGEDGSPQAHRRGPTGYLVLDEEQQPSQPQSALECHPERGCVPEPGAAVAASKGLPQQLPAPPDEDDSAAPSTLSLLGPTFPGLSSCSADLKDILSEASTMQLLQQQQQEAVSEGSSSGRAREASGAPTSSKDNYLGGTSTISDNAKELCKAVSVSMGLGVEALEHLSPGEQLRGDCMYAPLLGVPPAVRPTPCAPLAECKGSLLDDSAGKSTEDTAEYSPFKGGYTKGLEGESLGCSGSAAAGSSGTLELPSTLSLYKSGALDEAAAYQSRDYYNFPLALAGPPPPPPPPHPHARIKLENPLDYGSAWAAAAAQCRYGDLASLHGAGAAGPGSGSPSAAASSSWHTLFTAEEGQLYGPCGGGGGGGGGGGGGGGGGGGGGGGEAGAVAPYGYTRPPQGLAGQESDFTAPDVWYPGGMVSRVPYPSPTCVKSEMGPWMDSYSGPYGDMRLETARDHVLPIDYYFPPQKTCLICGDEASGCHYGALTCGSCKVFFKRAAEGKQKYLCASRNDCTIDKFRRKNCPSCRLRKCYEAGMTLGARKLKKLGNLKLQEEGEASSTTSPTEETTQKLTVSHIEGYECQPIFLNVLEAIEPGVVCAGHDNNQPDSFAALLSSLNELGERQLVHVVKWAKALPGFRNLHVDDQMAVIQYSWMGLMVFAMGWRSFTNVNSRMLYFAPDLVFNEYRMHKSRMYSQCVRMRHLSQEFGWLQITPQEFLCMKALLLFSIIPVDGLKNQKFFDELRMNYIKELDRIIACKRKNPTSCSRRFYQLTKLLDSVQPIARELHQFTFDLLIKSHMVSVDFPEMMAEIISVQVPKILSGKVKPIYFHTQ
The test is described as follows: VCAP AR Degradation Assay. The class given is cell-based. The settings on record: for Y (AR degradation efficiency, % of DMSO control): class symbols *; for DC50: class symbols A-C, read-out: DC50. The gist of the method: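 Compounds were plated as 10-point 1:3 series reaching 5 μM final, then VCaP cells were seeded onto them and incubated 24 h at 37 °C. Cells were lysed cold, and total AR was measured by sandwich ELISA relative to 0.1% DMSO wells.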

The DC50 is the concentration giving 50% degradation. Take `CCc1cc(N2C(=S)N(c3ccc(C#N)c(C(F)(F)F)c3)C(=O)C23CCC3)ccc1OCCN1CCN(CC(=O)Nc2cccc(NC3CCC(=O)NC3=O)c2)[C@H](C)C1` (stereo partly drawn) [Example 105, 2-((R)-4-(2-(4-(7-(4-cyano-3-(trifluoromethyl)phenyl)-8-oxo-6-thioxo-5,7-diazaspiro[3.4]octan-5-yl)-2-ethylphenoxy)ethyl)-2-methylpiperazin-1-yl)-N-(3-(2,6-dioxopiperidin-3-ylamino)phenyl)acetamide]: the “Y (AR degradation efficiency, % of DMSO control)” value is given as “* (0<Y<=25%)” and the DC50 was less than 100 nM.

With `CCc1cc(N2C(=S)N(c3cnc(C#N)c(C(F)(F)F)c3)C(=O)C23CCC3)ccc1OCCN1CCN(CC(=O)Nc2cc(Cl)cc(NC3CCC(=O)NC3=O)c2)[C@H](C)C1` (stereo partly drawn) [Example 106, N-(3-chloro-5-(2,6-dioxopiperidin-3-ylamino)phenyl)-2-((R)-4-(2-(4-(7-(6-cyano-5-(trifluoromethyl)pyridin-3-yl)-8-oxo-6-thioxo-5,7-diazaspiro[3.4]octan-5-yl)-2-ethylphenoxy)ethyl)-2-methylpiperazin-1-yl)acetamide], the “Y (AR degradation efficiency, % of DMSO control)” value is “* (0<Y<=25%)” and the DC50 is less than 100 nM.

Take `CCc1cc(N2C(=S)N(c3cnc(C#N)c(C(F)(F)F)c3)C(=O)C23CCC3)ccc1OCCN1CCN(CC(=O)Nc2cc(F)cc(NC3CCC(=O)NC3=O)c2)[C@H](C)C1` (stereo partly drawn) [Example 107, 2-((R)-4-(2-(4-(7-(6-cyano-5-(trifluoromethyl)pyridin-3-yl)-8-oxo-6-thioxo-5,7-diazaspiro[3.4]octan-5-yl)-2-ethylphenoxy)ethyl)-2-methylpiperazin-1-yl)-N-(3-(2,6-dioxopiperidin-3-ylamino)-5-fluorophenyl)acetamide]: the “Y (AR degradation efficiency, % of DMSO control)” value is “* (0<Y<=25%)” and the DC50 is less than 100 nM.

Consider `CCc1cc(N2C(=S)N(c3cnc(C#N)c(C(F)(F)F)c3)C(=O)C23CCC3)ccc1OCCN1CCN(CC(=O)Nc2cccc(NC3CCC(=O)NC3=O)c2)[C@H](C)C1` (stereo partly drawn) [Example 108, 2-((R)-4-(2-(4-(7-(6-cyano-5-(trifluoromethyl)pyridin-3-yl)-8-oxo-6-thioxo-5,7-diazaspiro[3.4]octan-5-yl)-2-ethylphenoxy)ethyl)-2-methylpiperazin-1-yl)-N-(3-(2,6-dioxopiperidin-3-ylamino)phenyl)acetamide], for which the “Y (AR degradation efficiency, % of DMSO control)” value is reported as “* (0<Y<=25%)” and the DC50 is less than 100 nM.

With `CCc1cc(N2C(=S)N(c3ccc(C#N)c(C(F)(F)F)c3)C(=O)C2(C)C)ccc1OCCN1CCN(CC(=O)Nc2cc(F)cc(NC3CCC(=O)NC3=O)c2)C2(CC2)C1` (stereo not drawn) [Example 109, 2-(7-(2-(4-(3-(4-cyano-3-(trifluoromethyl)phenyl)-5,5-dimethyl-4-oxo-2-thioxoimidazolidin-1-yl)-2-ethylphenoxy)ethyl)-4,7-diazaspiro[2.5]octan-4-yl)-N-(3-(2,6-dioxopiperidin-3-ylamino)-5-fluorophenyl)acetamide], the “Y (AR degradation efficiency, % of DMSO control)” value is listed as “* (0<Y<=25%)” and the DC50 is less than 100 nM.

Take `CCc1cc(N2C(=S)N(c3cnc(C#N)c(C(F)(F)F)c3)C(=O)C2(C)C)ccc1OCCN1CCN(CC(=O)Nc2cc(F)cc(NC3CCC(=O)NC3=O)c2)C2(CC2)C1` (stereo not drawn) [Example 110, 2-(7-(2-(4-(3-(6-cyano-5-(trifluoromethyl)pyridin-3-yl)-5,5-dimethyl-4-oxo-2-thioxoimidazolidin-1-yl)-2-ethylphenoxy)ethyl)-4,7-diazaspiro[2.5]octan-4-yl)-N-(3-(2,6-dioxopiperidin-3-ylamino)-5-fluorophenyl)acetamide]: the “Y (AR degradation efficiency, % of DMSO control)” value was “* (0<Y<=25%)” and the 50% degradation concentration (DC50) was less than 100 nM.

Turning to `CCc1cc(N2C(=S)N(c3ccc(C#N)c(C(F)(F)F)c3)C(=O)C2(C)C)ccc1OCCN1CCN(CC(=O)Nc2cccc(N[C@H]3CCC(=O)NC3=O)c2)[C@H](C)C1` [Example 111, 2-((R)-4-(2-(4-(3-(4-cyano-3-(trifluoromethyl)phenyl)-5,5-dimethyl-4-oxo-2-thioxoimidazolidin-1-yl)-2-ethylphenoxy)ethyl)-2-methylpiperazin-1-yl)-N-(3-((S)-2,6-dioxopiperidin-3-ylamino)phenyl)acetamide], the “Y (AR degradation efficiency, % of DMSO control)” value was “* (0<Y<=25%)” and the DC50 is less than 100 nM.

With `CCc1cc(N2C(=S)N(c3ccc(C#N)c(C(F)(F)F)c3)C(=O)C2(C)C)ccc1OCCN1CCN(CC(=O)Nc2cccc(N[C@@H]3CCC(=O)NC3=O)c2)[C@H](C)C1` [Example 112, 2-((R)-4-(2-(4-(3-(4-cyano-3-(trifluoromethyl)phenyl)-5,5-dimethyl-4-oxo-2-thioxoimidazolidin-1-yl)-2-ethylphenoxy)ethyl)-2-methylpiperazin-1-yl)-N-(3-((R)-2,6-dioxopiperidin-3-ylamino)phenyl)acetamide], the “Y (AR degradation efficiency, % of DMSO control)” value is listed as “* (0<Y<=25%)” and the DC50 was less than 100 nM.

Turning to `CCc1cc(N2C(=S)N(c3cnc(C#N)c(C(F)(F)F)c3)C(=O)C2(C)C)ccc1OCCN1C[C@@H]2C[C@H]1CN2CC(=O)Nc1cc(Cl)cc(NC2CCC(=O)NC2=O)c1` (stereo partly drawn) [Example 115, N-(3-chloro-5-(2,6-dioxopiperidin-3-ylamino)phenyl)-2-((1S,4S)-5-(2-(4-(3-(6-cyano-5-(trifluoromethyl)pyridin-3-yl)-5,5-dimethyl-4-oxo-2-thioxoimidazolidin-1-yl)-2-ethylphenoxy)ethyl)-2,5-diazabicyclo[2.2.1]heptan-2-yl)acetamide], the “Y (AR degradation efficiency, % of DMSO control)” value is “** (25%<Y<=35%)” and the DC50 lay in the range of 100 to 500 nM.

In the case of `CCc1cc(N2C(=S)N(c3cnc(C#N)c(C(F)(F)F)c3)C(=O)C2(C)C)ccc1OCCN1CCN([C@@H](C)C(=O)Nc2cc(F)cc(NC3CCC(=O)NC3=O)c2)CC1` (stereo partly drawn) [Example 116, (2S)-2-(4-(2-(4-(3-(6-cyano-5-(trifluoromethyl)pyridin-3-yl)-5,5-dimethyl-4-oxo-2-thioxoimidazolidin-1-yl)-2-ethylphenoxy)ethyl)piperazin-1-yl)-N-(3-(2,6-dioxopiperidin-3-ylamino)-5-fluorophenyl)propanamide], the “Y (AR degradation efficiency, % of DMSO control)” value is listed as “* (0<Y<=25%)” and the DC50 is less than 100 nM.

With `CCc1cc(N2C(=S)N(c3cnc(C#N)c(C(F)(F)F)c3)C(=O)C2(C)C)ccc1OCCN1CCN([C@H](C)C(=O)Nc2cc(F)cc(NC3CCC(=O)NC3=O)c2)CC1` (stereo partly drawn) [Example 117, (2R)-2-(4-(2-(4-(3-(6-cyano-5-(trifluoromethyl)pyridin-3-yl)-5,5-dimethyl-4-oxo-2-thioxoimidazolidin-1-yl)-2-ethylphenoxy)ethyl)piperazin-1-yl)-N-(3-(2,6-dioxopiperidin-3-ylamino)-5-fluorophenyl)propanamide], the “Y (AR degradation efficiency, % of DMSO control)” value is on record as “* (0<Y<=25%)” and the DC50 is less than 100 nM.

As for `CCc1cc(N2C(=S)N(c3cnc(C#N)c(C(F)(F)F)c3)C(=O)C2(C)C)ccc1OCCN1CCN([C@@H](C)C(=O)Nc2cccc(NC3CCC(=O)NC3=O)c2)CC1` (stereo partly drawn) [Example 118, (2S)-2-(4-(2-(4-(3-(6-cyano-5-(trifluoromethyl)pyridin-3-yl)-5,5-dimethyl-4-oxo-2-thioxoimidazolidin-1-yl)-2-ethylphenoxy)ethyl)piperazin-1-yl)-N-(3-(2,6-dioxopiperidin-3-ylamino)phenyl)propanamide], the “Y (AR degradation efficiency, % of DMSO control)” value was “* (0<Y<=25%)” and the DC50 is less than 100 nM.
